The text below walks through data of PMC7188728, “A phase I study investigation of metabolism, and disposition of [^14C]-anlotinib after an oral administration in patients with advanced refractory solid tumors” (Cancer Chemotherapy and Pharmacology, 2020).

Molecules are shown by their SMILES.

The nature of the series: Metabolite radio-profiling (LC-RAM, LC-MS/MS) of plasma, urine and feces. Particulars: pooled plasma 2–96 h, subjects 03–06. In kind it is in vivo, human. As to the method:
An equal volume of 2, 4, 8, 12, 24, and 96 h plasma sample was pooled by time-point across subject 03 ~ 06, to give six pooled plasma samples for metabolite profiling. An appropriate volume (3x, v/v) of acetonitrile was added to a portion of the pooled plasma sample, followed by vortexing ca. 2 min. After storage in a refrigerator for ca. 30 min, the mixture was centrifuged at ca. 10000 g at 4 °C for 10 min. The supernatant was then separated from the PES, which was suspended with water, followed by addition of methanol (2x, v/v) twice. The three extracts were combined and evaporated to dryness under a nitrogen stream by an N-Evap evaporator at room temperature. The residues were reconstituted with an appropriate volume of methanol:water (1:1, v/v) and centrifuged at ca. 10000 g at 4 ℃ for 10 min. The supernatant was subjected to HPLC radio-profiling.
Four pooled human urine samples (subject 03 ~ 06) were pooled from 0 to 432 h based on equal volume ratios from the individual patients across time intervals. In addition, three pooled urine samples (0–48, 48–120 and 360–432 h) (subjects 03–06) were prepared by pooling human urine samples across subjects and time points. Portion of the pooled urine sample was evaporated to a small volume under a nitrogen stream and extracted with methanol (3x, v/v) followed by centrifuged at ca. 10000 g at 4 ℃ for 10 min. The supernatant was reconstituted with an appropriate volume of methanol:water (1:1, v/v) and centrifuged at ca. 10000 g at 4 ℃ for 10 min. The supernatant was subjected to HPLC radio-profiling.
Four human fecal samples (0–432 h) were prepared by pooling feces from individual subjects (Subjects 03–06). In addition, three pooled human fecal samples (0–48, 48–120 and 360–432 h) were prepared by pooling feces samples across subjects and time points. The pooled fecal homogenate was extracted with methanol (3x, v/v) and the mixture was vortexed, and centrifuged at ca. 10000 g at 4 ℃ for 10 min. The supernatant was then separated from the PES, which was suspended with water, followed by addition of methanol twice. The three extracts were combined and evaporated to dryness under a nitrogen stream by an N-Evap evaporator at room temperature. The residues were reconstituted with an appropriate volume of methanol:water (1:1, v/v) and centrifuged at ca. 10000 g at 4 ℃ for 10 min prior to analysis.
HPLC coupled with radioactivity monitor (LC-RAM) was used to isolate and quantitate [^14C] anlotinib and its metabolites. The plasma and fecal extracts as well as urine supernatants were subjected to HPLC separation, fractionation, and eluent collection. The radioactivity in each fraction was monitored by solid scintillation counting using a Packard TopCount® NXT™ Microplate Counter. The radio-profiles were then reconstructed using ARC® Convert software. The peak area of each radioactivity peak/region was integrated using ARC® Evaluation software, and the percent distribution of each peak/region was calculated (%TRA for plasma or %Dose for urine and feces).
Metabolites were characterized and/or identified by LC–MS/MS in conjunction with on-line radioactivity detection. Structures of metabolites were proposed by interpretation of the mass spectral fragmentation pattern, as well as chromatographic behaviors and metabolic pathways.
As for `COc1cc2c(Oc3ccc4[nH]c(C)cc4c3F)ccnc2cc1O` [M18], the “Drug-related component in human plasma (radio-profile)” value is “detected”.
The result for `COc1cc2c(Oc3ccc4[nH]c(C)cc4c3F)ccnc2cc1OCC1(O)CC1` [M28] reads “detected”.
The same measure for `COc1cc2c(Oc3ccc4[nH]c(C(=O)O)cc4c3F)ccnc2cc1OCC1(N)CC1` [M30]: “major drug-related component”.
